According to article PMC4854855 (EJNMMI Research, 2016):
“And” between values parts separate entries of the source, which are not always exact repeats. Equal entries are not always repeated. “Also recorded” adds a separate entry of the source.

Tests used:
[1] = test system: PSMA+ LNCaP tumor; test: Dynamic PET imaging in LNCaP tumor-bearing BALB/c nude mice; assay type: in vivo, mouse
Protocol: PET imaging experiments were carried out in LNCaP and PC3 tumor-bearing Balb/c nude mice (Charles River Laboratories, Quebec, Canada). Male Balb/c nude mice were housed under standard conditions with free access to standard food and tap water. LNCaP and PC3 cells (5 × 10^6 cells in 100 μL of PBS) were injected into the upper left flank of the mice (20–24 g). Before injecting LNCaP cells, the mice received a 1.0-mg/pellet containing testosterone in a 60-day release preparation (Innovative Research of America, Sarasota, FL, USA). The pellet was implanted subcutaneously into the upper right flank in order to provide a constant level of testosterone needed by the androgen receptor positive LNCaP cells. Tumors reached sizes of approximately 1 cm^3 which were suitable for all in vivo experiments. General anesthesia of tumor-bearing mice was induced with inhalation of isoflurane in 40 % oxygen/60 % nitrogen (gas flow = […]), and the mice were subsequently fixed in prone position. The body temperature was kept constant at 37 °C for the entire experiment. The mice were positioned in a prone position into the center of the field of view. A transmission scan for attenuation correction was not acquired. […] For blocking studies, the animals were pre-dosed with 300 μg of DCFPyL in 50 μL saline about 10 min prior to radiotracer injection. Data acquisition was performed over 60 min in a 3D list mode. The dynamic list mode data were sorted into sinograms with 53 time frames (10 × 2, 8 × 5, 6 × 10, 6 × 20, 8 × 60, 10 × 120, 5 × 300 s). The frames were reconstructed using maximum a posteriori (MAP) as reconstruction mode. The pixel size was 0.085 × 0.085 × 0.121 mm^3 (256 × 256 × 63), and the resolution in the center of the field of view was 1.8 mm. No correction for partial volume effects was applied. The image files were processed using the ROVER v 2.0.51 software (ABX GmbH, Radeberg, Germany). Masks defining 3D regions of interest (ROI) were set and the ROIs were defined by thresholding. Mean standardized uptake values [SUV]mean = (activity/mL tissue)/(injected activity/body weight), mL/g, were calculated for each ROI. Time-activity curves (TACs) were generated for the dynamic scans only. All semi-quantified PET data are presented as means ± SEM. Statistical difference for the blocking study was tested by unpaired Student’s t test and was considered significant for P < 0.05.

[2] = Radiometabolite analysis / in vivo metabolic stability in BALB/c mice; set-up: species or system mouse
Protocol: Venous blood samples were collected at 5, 15, 30, and 60 min p.i. via the mouse tail vein and further processed. Blood cells were separated by centrifugation (13,000 rpm × 5 min). Precipitation of proteins in the supernatant was achieved by the addition of 2 volume parts of MeOH, and the samples were centrifuged again (13,000 rpm × 5 min). Fractions of blood cells, proteins, and plasma were measured in a Wizard gamma counter to determine radioactivity per sample. The clear plasma supernatant was injected onto a Shimadzu HPLC system.
The samples were analyzed using a Phenomenex Luna 10u C18 [2] 100 A, 250 × 4.6 mm column at a constant flow rate of 1 mL min^−1 and the following gradient with water/0.2 % TFA as solvent A and CH3CN as solvent B: 0–7.5 min 20 % B, 7.5–15 min gradient to 90 % B, 15–20 min 90 % B.

[3] = test system: PSMA− PC3 cells; test: Cell-specific internalization experiment in PC3 cells; assay type: cell-based; conditions: 60 min, 37 °C
Protocol: (§1) 10^5 LNCaP or PC3 cells were seeded in poly-D-lysine-coated 12-well plates 24–48 h before the assay so that cells could reach 95 % confluency. The medium was removed 1 h before the assay, and the cells were rinsed twice with PBS. After the addition of Krebs buffer (1 mL) to each well, the cells were incubated at 37 °C. […] Cellular uptake was stopped by removing incubation media from the cells and washing the wells twice with ice-cold PBS buffer (1 mL). Surface-bound radioactivity was removed from the cells through incubating the cells twice with 0.5 mL glycine-HCl in PBS (50 mM, pH 2.5) for 5 min at 37 °C. Cells were washed again with ice-cold PBS before the addition of radio-immunoprecipitation assay (RIPA) buffer (400 μL) to lyse the cells. Cells were returned into the incubator for 10 min, and cell lysates were collected for counting. Radioactivity of surface-bound and internalized fraction was measured in a WIZARD2 Automatic gamma counter (Perkin Elmer, Waltham, MA, USA). Total protein concentration in the samples was determined by the bicinchoninic acid method (BCA; Pierce, Thermo Scientific 23227) using bovine serum albumin (800, 600, 400, 300, 200, 100, 50 μg/mL, blank) as protein standard. Data are expressed as percent of total uptake per 1 mg protein (% of total uptake/mg protein).

[4] = test system: PSMA− PC3 tumor; test: Dynamic PET imaging in PC3 tumor-bearing BALB/c nude mice; assay type: in vivo, mouse; conditions: 60 min p.i.
Protocol: PET imaging experiments were carried out in LNCaP and PC3 tumor-bearing Balb/c nude mice (Charles River Laboratories, Quebec, Canada). Male Balb/c nude mice were housed under standard conditions with free access to standard food and tap water. LNCaP and PC3 cells (5 × 10^6 cells in 100 μL of PBS) were injected into the upper left flank of the mice (20–24 g). Before injecting LNCaP cells, the mice received a 1.0-mg/pellet containing testosterone in a 60-day release preparation (Innovative Research of America, Sarasota, FL, USA). The pellet was implanted subcutaneously into the upper right flank in order to provide a constant level of testosterone needed by the androgen receptor positive LNCaP cells. Tumors reached sizes of approximately 1 cm^3 which were suitable for all in vivo experiments. General anesthesia of tumor-bearing mice was induced with inhalation of isoflurane in 40 % oxygen/60 % nitrogen (gas flow = […]), and the mice were subsequently fixed in prone position. The body temperature was kept constant at 37 °C for the entire experiment. The mice were positioned in a prone position into the center of the field of view. A transmission scan for attenuation correction was not acquired. […] Mean standardized uptake values [SUV]mean = (activity/mL tissue)/(injected activity/body weight), mL/g, were calculated for each ROI. […] All semi-quantified PET data are presented as means ± SEM. […]

[5] = test system: PSMA+ LNCaP cells; test: Cell-specific internalization experiment in LNCaP cells; assay type: cell-based
Protocol: as §1

[6] = test system: PSMA− PC3 tumor; test: Tracer kinetic analysis (reversible two-tissue compartmental model), PC3 tumors; assay type: in vivo, mouse
Protocol: (§2) Tracer kinetic analysis was performed using a two-tissue compartmental model using dynamically acquired PET imaging data. Full details on tracer kinetic analysis are given in the Additional file 1. […] Tracer kinetic analysis was carried out with PET imaging data acquired dynamically from PSMA+ LNCaP and PSMA− PC3 tumor-bearing mice (see Fig. 7). Four kinetic parameters (K1, k2, k3, k4) describing the flow of the radiotracer from the blood to the tissue (K1) and from the tissue into the blood (k2), binding of the radiotracer to the tissue (k3) and dissociation from the tissue (k4), were calculated. The analysis was performed by fitting the measured TACs with a two-exponential model of the general form as described, e.g., by van den Hoff (Additional file 1: Figure S2). Tracer kinetic analysis was performed using a two-tissue compartmental model using dynamically acquired PET imaging data. A volume of interest (VOI) was defined for the tumor using the Rover software (ABX GmbH, Dresden, Germany) by applying a threshold of 50% SUVmax within an ellipsoid mask around the tumor on an image representing the average of the last 40 min of the acquisition (i.e. excluding the tracer uptake phase). Image derived input functions were obtained from regions around the heart, defined by the injected blood bolus visible in the first few time fames of the dynamic acquisitions, using a threshold of 75% of SUVmax in that region. Four kinetic parameters (K1, k2, k3, k4) and the fractional blood volume (fbv) which accounts for the non-zero vascular space within the tumor ROI, describe the model. The analysis was carried out by fitting the measured tumor time-activity curves (TACs) with a two-exponential model of the general form: The fit of equation [1] to the experimentally acquired tumor TACs was implemented in Matlab (The Mathworks, Inc., v. R2014b), utilizing a Nelder-Mead simplex direct search. The fit was governed by the minimization of the sum over all time points of square differences between the measured values and the model prediction (Figure S2).

[7] = test system: PSMA+ LNCaP tumor; test: Tracer kinetic analysis (reversible two-tissue compartmental model), LNCaP tumors; assay type: in vivo, mouse
Protocol: as §2

[8] = Stability of the product in saline (quality control); assay type: physicochemical; conditions: up to 4 h
Protocol: Radio-TLC analysis on silica gel plates gave a Rf value of 0.6 in 95 % CH3CN/H2O (Additional file 1: Figure S4).
[^18F]fluoride. Radio-TLC analysis on silica gel plates gave a Rf value of 0.6 in 95 % CH3CN/H2O (Additional file 1: Figure S4), and the product was stable (>95 %) in saline of up to 4 h.

[9] = Storage stability of labeling precursor; assay type: physicochemical; conditions: solid, stored at 4 °C
[10] = LNCaP, two-tissue compartmental model

With `O=C(O)CC[C@H](NC(=O)N[C@@H](CCCCNC(=O)c1ccc(F)nc1)C(=O)O)C(=O)O` [DCFPyL, reference compound] the “reduction of [18F]DCFPyL radioactivity uptake in LNCaP tumor upon pretreatment with DCFPyL” value ([1]; 60 min p.i., 300 μg DCFPyL before radiotracer) was 80%.
With `O=C(O)CCC(NC(=O)NC(CCCCNC(=O)c1ccc([18F])nc1)C(=O)O)C(=O)O` [[^18F]DCFPyL, (S)-2-[3-((S)-1-carboxy-5-[3-(6-fluoropyridine)carbonyl)amino)pentyl)ureido]-pentanedioic acid] the “radiometabolites in urine (radio-HPLC)” value ([2]; 60 min p.i.) was “contained only parent compound; also recorded: no radiometabolites were detected”, the “binding to plasma proteins (distribution in blood)” value ([2]; n = 3) was “low binding of the radiotracer to blood cells and plasma proteins; also recorded: only minimal binding to plasma proteins” and the “radiometabolites in plasma (radio-HPLC)” value ([2]; over 60 min p.i.) was “no radiometabolites were detected”. The “radioactivity uptake, internalized fraction” value [3] was 0.76 ± 0.05 % of total uptake/mg protein, the “radioactivity uptake, membrane-bound fraction” value [3] was 4.30 ± 0.40 % of total uptake/mg protein and the “SUV5min, radioactivity uptake in LNCaP tumors” value ([1]; 5 min p.i., dynamic PET) was 0.95. For the same molecule, the “SUV60min, muscle as reference tissue” value ([1]; 60 min p.i.) was 0.06, the “SUV60min, radioactivity uptake in LNCaP tumor (control)” value ([1]; 60 min p.i., dynamic PET) was 1.1 and 1.1 ± 0.1 and the “SUV60min, LNCaP tumor, blocked” value ([1]; 60 min p.i., pre-dosed with 300 μg nonradioactive DCFPyL) was 0.22 and 0.2 ± 0.05. For the same molecule, the “SUV60min, radioactivity uptake in PC3 tumors” value [4] was 0.11 and 0.1, the “radioactivity uptake, internalized fraction” value ([5]; 60 min, 37 °C) was 35.05 ± 0.69 % of total uptake/mg protein and the “radioactivity uptake, membrane-bound fraction” value ([5]; 60 min, 37 °C) was 45.47 ± 1.01 % of total uptake/mg protein. The “fraction of internalized radioactivity” value ([5]; 60 min incubation) was 44%, the “coefficient k3/(k3 + k2), fraction entering the second compartment” value [6] was 0.058 and the “k3 (binding of radiotracer to tissue)” value [6] was 0.008. For the same molecule, the “net delivery K1/k2” value [6] was 0.49, the “retention k3/k4” value [6] was 0.13 and the “coefficient k3/(k3 + k2), fraction entering the second compartment” value ([7]; LNCaP tumors) was 0.314. The “retention k3/k4” value ([7]; LNCaP tumors) was 20.5, the “K1 (flow of radiotracer from blood to tissue)” value [7, 10] was 0.12 min⁻¹ and the “k2 (flow from tissue into blood)” value [7, 10] was 0.18 min⁻¹. The “k3 (binding of radiotracer to tissue)” value [7, 10] was 0.08 min⁻¹ and 0.082 min⁻¹, the “k4 (dissociation from tissue)” value [7, 10] was 0.004 min⁻¹ and the “stability of product in saline” value [8] was greater than 95%.
In the case of `CC(C)(C)OC(=O)CCC(NC(=O)NC(CCCCNC(=O)c1ccc([N+](C)(C)C)nc1)C(=O)OC(C)(C)C)C(=O)OC(C)(C)C` (centres unmarked) [Compound 9], the “storage time without significant decomposition” value [9] is reported as “at least 3 months”.
